Data reported in US5688938A, “Calcium receptor-active molecules” (priority 1995, dated 1997).

How the values were obtained:
[1] = tested on: L-type voltage-sensitive Ca^2+ channel; experiment: block of extracellular Ca^2+-induced increases in [Ca^2+]i in rMTC 6-23 cells; type: cell-based, rat; details: read-out: IC50 for block of extracellular Ca^2+-induced increases in [Ca^2+]i
[2] = tested on: parathyroid cell calcium receptor; experiment: Cl^- current in Xenopus oocytes injected with (bovine) parathyroid cell mRNA; type: cell-based; details: fendiline 100 μM
Experimental: (§1) Following incubation, an oocyte was placed into a 100-μl plastic chamber and superfused with MBS at a flow rate of 0.5 ml/min using a peristaltic pump. Test molecules or inorganic polycations were added by rapidly moving the tubing into different buffers. Recording and current passing electrodes were constructed from thin-wall capillary tubing pulled to a resistance of 1-3 Mohms and filled with 3M KCl. […] Currents were recorded directly onto a strip chart recorder.

[3] = target: T1, parathyroid cell calcium receptor (Bos taurus, UniProt P35384); experiment: cell-based; type: cell-based
T1 sequence (P35384 21-1085 limits assumed): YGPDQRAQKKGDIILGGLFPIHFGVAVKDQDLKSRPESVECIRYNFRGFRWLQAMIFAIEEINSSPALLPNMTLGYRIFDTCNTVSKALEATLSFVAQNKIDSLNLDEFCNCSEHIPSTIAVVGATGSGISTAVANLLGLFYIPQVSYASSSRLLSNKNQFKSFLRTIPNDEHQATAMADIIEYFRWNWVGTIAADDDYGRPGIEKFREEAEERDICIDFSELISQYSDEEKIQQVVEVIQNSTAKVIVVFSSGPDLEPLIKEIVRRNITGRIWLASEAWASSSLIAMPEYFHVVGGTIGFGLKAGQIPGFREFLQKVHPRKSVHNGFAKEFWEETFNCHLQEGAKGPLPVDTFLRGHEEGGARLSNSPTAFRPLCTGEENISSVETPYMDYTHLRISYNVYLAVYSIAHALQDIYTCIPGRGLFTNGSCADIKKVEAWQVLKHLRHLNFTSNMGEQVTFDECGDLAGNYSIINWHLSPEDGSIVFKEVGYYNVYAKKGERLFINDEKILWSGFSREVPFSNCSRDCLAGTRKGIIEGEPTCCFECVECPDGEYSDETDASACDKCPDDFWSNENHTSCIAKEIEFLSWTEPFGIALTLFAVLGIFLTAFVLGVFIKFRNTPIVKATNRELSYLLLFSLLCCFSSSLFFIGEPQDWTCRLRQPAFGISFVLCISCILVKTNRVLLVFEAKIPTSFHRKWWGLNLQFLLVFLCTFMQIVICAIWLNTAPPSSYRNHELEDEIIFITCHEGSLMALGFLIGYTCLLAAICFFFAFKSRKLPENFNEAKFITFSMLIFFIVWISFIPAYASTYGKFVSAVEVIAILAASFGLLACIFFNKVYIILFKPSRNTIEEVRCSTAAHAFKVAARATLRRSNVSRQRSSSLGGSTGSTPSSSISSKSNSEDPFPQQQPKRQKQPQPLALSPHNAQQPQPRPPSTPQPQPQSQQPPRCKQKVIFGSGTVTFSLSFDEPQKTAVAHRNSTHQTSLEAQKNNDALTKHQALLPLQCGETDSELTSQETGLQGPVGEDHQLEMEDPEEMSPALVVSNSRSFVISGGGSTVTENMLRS
Experimental: For example,.bovine parathyroid cells loaded with fura-2 are initially suspended in buffer containing 0.5 mM CaCl2. A test substance is added to the cuvette in a small volume (5-15 μl) and changes in the fluorescence signal are measured. Cumulative increases in the concentration of the test substance are made in the cuvette until some predetermined concentration is achieved or no further changes in fluorescence are noted.
This section describes procedures used to obtain and treat parathyroid cells from calves and humans. […] Human parathyroid glands, were obtained from patients undergoing surgical removal of parathyroid tissue for primary or uremic hyperparathyroidism (uremic HPT), and were treated similarly to bovine tissue.
Glands were trimmed of excess fat and connective tissue and then minced with fine scissors into cubes approximately 2-3 mm on a side. Dissociated parathyroid cells were prepared by collagenase digestion and then purified by centrifugation in Percoll buffer. The resultant parathyroid cell preparation was essentially devoid of red blood cells, adipocytes, and capillary tissue as assessed by phase contrast microscopy and Sudan black B staining. Dissociated and purified parathyroid cells were present as small clusters containing 5 to 20 cells.
The cells were then transferred to plastic flasks (75 or 150 cm^2 ; Falcon) and incubated overnight at 37° C. in a humid atmosphere of 5% CO2. No serum is added to these overnight cultures, since its presence allows the cells to attach to the plastic, undergo proliferation, and dedifferentiate. Cells cultured under the above conditions were readily removed from the flasks by decanting, and show the same viability as freshly prepared cells.
The cells were then pelleted, resuspended in the same buffer, but lacking the ester, and incubated a further 15 minutes at 37° C. The cells were subsequently washed twice with PCB containing 0.5 mM CaCl2 and 0.5% BSA and maintained at room temperature (about 20° C.). Immediately before use, the cells were diluted five-fold with prewarmed 0.5mM CaCl2 -PCB to obtain a final BSA concentration of 0.1%. The concentration of cells in the cuvette used for fluorescence recording was 1-2×10^6 /ml.
The fluorescence of indicator-loaded cells was measured at 37° C. in a spectrofluorimeter (Biomedical Instrumentation Group, University of Pennsylvania, Philadelphia, Pa.) equipped with a thermostated cuvette holder and magnetic stirrer using excitation and emission wavelengths of 340 and 510 nm, respectively. […] Leakage of dye is dependent on temperature and most occurs within the first 2 minutes after warming the cells in the cuvette. Dye leakage increases only very slowly thereafter. To correct the calibration for dye leakage, cells were placed in the cuvette and stirred at 37° C. for 2-3 minutes. The cell suspension was then removed, the cells pelleted, and the supernatant returned to a clean cuvette. […] This estimate was subtracted from the apparent Fmin.
Dissociated bovine parathyroid cells were purified on gradients of Percoll and cultured overnight in serum-free medium. […] That is,

calcium receptor = target: T2, calcium receptor (Homo sapiens, UniProt P41180); experiment: Xenopus oocytes injected with human parathyroid mRNA; type: cell-based
T2 construct: Xenopus oocytes injected with poly(A)+ mRNA from human hyperplastic parathyroid tissue
T2 sequence (P41180 20-1078): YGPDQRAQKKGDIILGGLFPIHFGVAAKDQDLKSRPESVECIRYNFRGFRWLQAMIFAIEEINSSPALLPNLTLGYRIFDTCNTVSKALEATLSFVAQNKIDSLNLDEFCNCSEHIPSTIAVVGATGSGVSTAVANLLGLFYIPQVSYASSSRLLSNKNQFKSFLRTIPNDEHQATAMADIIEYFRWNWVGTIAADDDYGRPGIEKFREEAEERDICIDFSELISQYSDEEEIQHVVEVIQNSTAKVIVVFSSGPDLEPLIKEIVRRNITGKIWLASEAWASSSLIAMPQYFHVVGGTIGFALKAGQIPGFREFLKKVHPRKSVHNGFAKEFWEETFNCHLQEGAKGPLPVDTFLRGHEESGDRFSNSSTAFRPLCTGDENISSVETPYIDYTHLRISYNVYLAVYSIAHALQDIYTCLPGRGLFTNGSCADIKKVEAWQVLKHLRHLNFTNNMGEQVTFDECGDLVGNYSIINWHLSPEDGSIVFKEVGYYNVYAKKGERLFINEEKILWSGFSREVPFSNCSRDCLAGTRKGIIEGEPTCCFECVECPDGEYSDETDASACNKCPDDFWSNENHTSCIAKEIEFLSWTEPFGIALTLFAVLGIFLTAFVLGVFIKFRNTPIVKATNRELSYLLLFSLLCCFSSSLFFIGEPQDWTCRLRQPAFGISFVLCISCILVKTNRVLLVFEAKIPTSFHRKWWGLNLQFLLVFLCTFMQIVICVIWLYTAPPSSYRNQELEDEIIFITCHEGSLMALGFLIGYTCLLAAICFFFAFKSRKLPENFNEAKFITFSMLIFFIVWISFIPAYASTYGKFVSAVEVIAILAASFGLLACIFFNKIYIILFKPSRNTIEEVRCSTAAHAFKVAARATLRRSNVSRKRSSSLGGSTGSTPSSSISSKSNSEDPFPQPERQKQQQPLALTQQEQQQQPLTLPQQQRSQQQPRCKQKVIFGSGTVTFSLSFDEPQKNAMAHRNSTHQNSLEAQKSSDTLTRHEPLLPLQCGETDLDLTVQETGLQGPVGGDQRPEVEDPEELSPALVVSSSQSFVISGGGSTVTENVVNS
Experimental: Oocytes were injected with poly(A)+-enriched mRNA from human parathyroid tissue (hyperplastic glands from a case of secondary HPT).
as §1
Using this screen allows one to test for an action directly on the calcium receptor. Oocytes expressing the calcium receptor also responded to several molecules active on intact parathyroid cells when screened as follows. […] This offers rather compelling evidence showing that these molecules act on the calcium receptor or on some other protein intimately associated with its function.

net positive charge = type: physicochemical; details: Table 1; at physiological pH
[4] = tested on: osteoclast calcium receptor; experiment: [Ca^2+]i (indo-1) in rat osteoclasts; type: cell-based; details: with or without 1 mM extracellular CaCl2
rat osteoclasts = experiment: inhibition of bone resorption (pit formation on bovine cortical bone slices); type: cell-based; details: Osteoclast, 24 hours, read-out: IC50 for inhibition of bone resorption in vitro
bovine parathyroid cells [5] = type: cell-based
Experimental: This section describes measuring cyclic AMP levels. Cells were incubated as above for PTH secretion studies and at the end of the incubation, a 0.15-ml sample was taken and transferred to 0.85 ml of hot (70° C.) water and heated at this temperature for 5-10 minutes. The tubes were subsequently frozen and thawed several times and the cellular debris sedimented by centrifugation. Portions of the supernatant were acetylated and cyclic AMP concentrations determined by radioimmunoassay.
Bovine parathyroid cells were cultured for 16 hours with or without 100 ng/ml pertussis toxin. […] Each value is the mean±SEM of three experiments.

bovine parathyroid cells [6] = experiment: PTH secretion from bovine parathyroid cells; type: cell-based
Experimental: In most experiments, cells loaded with fura-2 were also used in studies of PTH secretion.
PTH secretion was measured by first suspending cells in PCB containing 0.5 mM CaCl2 and 0.1% BSA.

bovine parathyroid cells [7] = experiment: inositol phosphate formation in bovine parathyroid cells; type: cell-based
Experimental: This section describes procedures measuring inositol phosphate formation. Membrane phospholipids were labeled by incubating parathyroid cells with 4 μCi/ml ^3 H-myo-inositol for 20-24 hours. Cells were then washed and resuspended in PCB containing 0.5 mM CaCl2 and 0.1% BSA. Incubations were performed in microfuge tubes in the absence or presence of various concentrations of organic polycation for different times. Reactions were terminated by the addition of 1 ml chloroform-methanol-12N HCl (200:100:1; v/v/v). Aqueous phytic acid hydrolysate (200 μl; 25 μg phosphate/tube). The tubes were centrifuged and 600 μl of the aqueous phase was diluted into 10 ml water.
Inositol phosphates were separated by ion-exchange chromatography using AG1-X8 in either the chloride- or formate-form. When only IP3 levels were to be determined, the chloride-form was used, whereas the formate form was used to resolve the major inositol phosphates (IP3, IP2, and IP1). For determination of just IP3, the diluted sample was applied to the chloride-form column and the column was washed with 10 ml 30 mM HCl followed by 6 ml 90 mM HCl and the IP3 was eluted with 3 ml 500 mM HCl. The last eluate was diluted and counted. […] The eluted samples from the formate columns were rotary evaporated, the residues brought up in cocktail, and counted.
The isomeric forms of IP3 were evaluated by HPLC. […]

With NCCCNCCCCNCCCNCCCN(O)CCCNC(=O)Cc1c[nH]c2cccc(O)c12 [NPS 015] as the compound, how does the IC50 [1] read?
The IC50 was 3000 nM.

Which “Cl^- current in oocytes” value [2] does the source give for CC(NCCC(c1ccccc1)c1ccccc1)c1ccccc1 (racemic) [Fendiline, reference compound] here?
The value was “oscillatory increases”.

With C1CNCCNCCNCCNCCNCCN1 [Hexacyclen, 1,4,7,10,13,16-hexaaza-cyclooctadecane, reference compound] as the compound, how does the “potency relative to NPS 383” value ([3]; [Ca^2+]i) read?
Its value is 7 -fold.

What about the “potency relative to pentaethylenehexamine” value ([3]; [Ca^2+]i) of the same compound?
Its value is 25 -fold.

What about the “effective concentration for mobilization of intracellular Ca^2+ in oocytes” value (calcium receptor) of the same compound?
Its value is 135 µM.

And the “Net (+) Charge” value (net positive charge)?
The value was “+6”.

For CC(Cc1ccccc1)NCCC(c1ccccc1)c1ccccc1 (stereo not shown) [Prenylamine], which “mobilization of [Ca^2+]i in rat osteoclasts” value [4] is on record?
Its value is “mobilization of [Ca^2+ ]i”.

What about the IC50 (rat osteoclasts) of the same compound?
The IC50 was 10 µM.

Which “increases in [Ca^2+]i” value [3] does the source give for protamine here?
Its value is “rapid and transient increases in [Ca^2+ ]i”.

What about the “cyclic AMP (+PTx)” value (bovine parathyroid cells [5]) of the same compound?
Its value is 89 ± 9 % of control.

And the “cyclic AMP (control, without pertussis toxin)” value (bovine parathyroid cells [5]; 10 μM isoproterenol, 2.0 mM Ca^2+, or 0.5 mM Ca^2+ with 200 μM spermine, 30 μM neomycin B or 2 μg/ml protamine, mean±SEM of three experiments)?
Its value is 20 ± 4 % of control.

What about the “inhibition of PTH secretion” value (bovine parathyroid cells [6]) of the same compound?
Its value is “inhibited PTH secretion to the same extent as extracellular Ca^2+”.

What about the “formation of IP3” value (bovine parathyroid cells [7]) of the same compound?
The value was “rapid (within 30 seconds) increase”.
